Tested on: potassium ion channel current of the DRG neurons
Type: cell-based, SD rats
Details: 5 mM

For `Nc1ccncc1` [4AP, 4-aminopyridine], the Current inhibition rate was 0.338 and the “Current recorded after loading” value was 0.9766 nA.

Source: patent publication US10858406B2 (priority 2014, dated 2020)
